In brackets after ≈: the same amount, converted by molar mass. Like-named read-outs stand apart in the source and are kept apart here. Numbered stars: 1 amine (or outer) side, 2 acyl side, 3 side chain; on linkers, the order of the positions; unused ones are H or OH. Bridge positions count the residues as written; N and C are the ends. Square brackets hold non-standard residues; d marks the D form. Peptide text beside a SMILES is read from it. 3Aminoazetidine3carboxyl = O=C(C1(N[*:1])CN([*:3])C1)[*:2]; dαMeOrn(Me) = CN(CCC[C@@](C)(N[*:1])C(=O)[*:2])[*:3]; dαMeDab(Me) = CN(CC[C@@](C)(N[*:1])C(=O)[*:2])[*:3]; αMeDab(Me) = CN(CC[C@](C)(N[*:1])C(=O)[*:2])[*:3]; X8 = CN(CC=[*:3])CCC[C@](C)(N[*:1])C(=O)[*:2]; X3 = O=C([C@@]1(N[*:1])CCN([*:3])C1)[*:2]; X7 = C[C@](CCCCC=[*:3])(N[*:1])C(=O)[*:2]; X1 = O=C([C@]1(N[*:1])CCN([*:3])C1)[*:2]; X9 = C[C@](CCC=[*:3])(N[*:1])C(=O)[*:2]; X2 = O=C(OCC=CCOC(=O)[*:2])[*:1]; R5 = C=CCCC[C@@](C)(N)C(=O)O; Aib = CC(C)(N)C(=O)O
Legend:
[1] = target: T1, full-length beta-catenin (Axin site) (Homo sapiens, UniProt P35222); assay: Competition fluorescence polarization assay (Axin site probe); type: binding; settings: competition fluorescence polarization, Table 2; read-out: in vitro FP EC50
T1 construct: 15 nM full-length beta-catenin, 20 nM FITC labeled peptide in buffer
T1 sequence (P35222 1-781): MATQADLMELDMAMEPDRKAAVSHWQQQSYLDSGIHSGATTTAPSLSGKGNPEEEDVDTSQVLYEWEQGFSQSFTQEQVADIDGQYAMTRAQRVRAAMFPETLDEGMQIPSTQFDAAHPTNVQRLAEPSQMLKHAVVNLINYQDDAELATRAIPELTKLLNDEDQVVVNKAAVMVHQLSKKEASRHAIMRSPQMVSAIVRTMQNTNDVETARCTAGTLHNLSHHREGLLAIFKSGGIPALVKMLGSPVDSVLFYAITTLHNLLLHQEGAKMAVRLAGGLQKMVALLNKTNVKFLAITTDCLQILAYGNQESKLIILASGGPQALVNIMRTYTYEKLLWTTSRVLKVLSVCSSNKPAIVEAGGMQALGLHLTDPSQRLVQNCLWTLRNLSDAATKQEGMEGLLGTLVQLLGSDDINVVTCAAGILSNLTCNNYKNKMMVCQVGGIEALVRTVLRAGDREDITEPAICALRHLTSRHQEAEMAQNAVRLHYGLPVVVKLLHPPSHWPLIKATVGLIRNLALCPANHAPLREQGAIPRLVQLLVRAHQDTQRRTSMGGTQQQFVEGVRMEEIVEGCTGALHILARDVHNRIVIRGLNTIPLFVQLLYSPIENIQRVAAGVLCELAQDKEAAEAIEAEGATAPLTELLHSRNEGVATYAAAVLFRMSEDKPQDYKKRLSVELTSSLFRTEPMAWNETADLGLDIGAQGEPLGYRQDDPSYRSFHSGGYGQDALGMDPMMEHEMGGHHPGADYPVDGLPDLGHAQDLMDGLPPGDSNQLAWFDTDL
In short: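 Competition FP: 15 nM full-length β-catenin pre-incubated 5 min with 20 nM FITC-labelled stapled Axin-site peptide, then titrated peptide added (3-fold series from 5 μM) for 15 min in the dark. Buffer 50 mM Tris pH 8.0, 250 mM NaCl, 2% glycerol, 0.5 mM EDTA; duplicate reads.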

[2] = Solubility in DPBS (A280 of supernatant); type: physicochemical; settings: DPBS
Description: Suitable assays for assessing solubility are widely known in the art and can be utilized in accordance with the present disclosure. In some embodiments, in an exemplary protocol, dried peptide was reconstituted in DPBS (DPBS, 1×, cell culture grade, Sigma D8537) in triplicate, vortexed, sonicated and then centrifuged. Absorbance of the supernatant was measured at A280 (Nanodrop 2000) and the concentration was determined using the extinction coefficient for tryptophan. Exemplary solubility data are presented in, e.g., Table 2.

[3] = Table 3 Part A, read-out: Solubility in DPBS
[4] = Table 3 Part B, amino-stapled product, read-out: Solubility in DPBS

SMILES	EC50 [1]	solubility ([2]; Table 2, read-out: Solubility)	solubility [2, 3]	solubility [2, 4]	solubility thermodynamic [2, 3]
CC[C@H](C)[C@@H]1NC(=O)[C@H](Cc2c[nH]cn2)NC(=O)[C@H](C)NC(=O)[C@H](CC(=O)O)NC(=O)[C@H](CC(C)C)NC(=O)[C@H]([C@@H](C)CC)NC(=O)[C@](C)(NC(=O)[C@H](C)NC(C)=O)CCCCCC=CCOC(=O)N(C)CC[C@@](C)(C(=O)N[C@@H](CCCNC(=N)N)C(=O)N[C@H](C(=O)N[C@@H](Cc2c[nH]c3ccccc23)C(N)=O)C(C)C)NC1=O [FP0503c, Ac-A-R7-I-L-D-A-H-I-MF-R-V-W-NH2]	100 to 500 nM	35 µM (≈ 55.5 µg/mL)	35 µM (≈ 55.5 µg/mL)	–	–
CC[C@H](C)[C@@H]1NC(=O)[C@H](Cc2c[nH]cn2)NC(=O)[C@H](C)NC(=O)[C@H](CC(=O)O)NC(=O)[C@H](CC(C)C)NC(=O)[C@H]([C@@H](C)CC)NC(=O)[C@](C)(NC(=O)[C@H](C)NC(C)=O)CCC=CCN(C)CCC[C@@](C)(C(=O)N[C@@H](CCCNC(=N)N)C(=O)N[C@H](C(=O)N[C@@H](Cc2c[nH]c3ccccc23)C(N)=O)C(C)C)NC1=O [FP0509a, Ac-A-R4-I-L-D-A-H-I-MH-R-V-W-NH2] (Ac-A[X9]ILDAHI[X8]RVW-NH2; staple 2-9)	500 to 5000 nM	192 µM (≈ 291 µg/mL)	–	192 µM (≈ 291 µg/mL)	–
CC[C@H](C)[C@@H]1NC(=O)[C@H](Cc2c[nH]cn2)NC(=O)[C@H](C)NC(=O)[C@H](CC(=O)O)NC(=O)[C@H](CC(C)C)NC(=O)[C@H]([C@@H](C)CC)NC(=O)[C@](C)(NC(=O)[C@H](C)NC(C)=O)CCCC=CCN(C)CCC[C@@](C)(C(=O)N[C@@H](CCCNC(=N)N)C(=O)N[C@H](C(=O)N[C@@H](Cc2c[nH]c3ccccc23)C(N)=O)C(C)C)NC1=O [FP0510a, Ac-A-R5-I-L-D-A-H-I-MH-R-V-W-NH2] (Ac-A[R5]ILDAHI[X8]RVW-NH2; staple 2-9)	500 to 5000 nM	165 µM (≈ 252 µg/mL)	–	165 µM (≈ 252 µg/mL)	–
CC[C@H](C)[C@@H]1NC(=O)[C@H](Cc2c[nH]cn2)NC(=O)[C@H](C)NC(=O)[C@H](CC(=O)O)NC(=O)[C@H](CC(C)C)NC(=O)[C@H]([C@@H](C)CC)NC(=O)[C@](C)(NC(=O)[C@H](C)NC(C)=O)CCCCC=CCN(C)CCC[C@@](C)(C(=O)N[C@@H](CCCNC(=N)N)C(=O)N[C@H](C(=O)N[C@@H](Cc2c[nH]c3ccccc23)C(N)=O)C(C)C)NC1=O [FP0511a, Ac-A-R6-I-L-D-A-H-I-MH-R-V-W-NH2] (Ac-A[X7]ILDAHI[X8]RVW-NH2; staple 2-9)	< 100 nM	170 µM (≈ 262 µg/mL)	–	170 µM (≈ 262 µg/mL)	–
CC[C@H](C)[C@@H]1NC(=O)[C@H](Cc2c[nH]cn2)NC(=O)[C@H](C)NC(=O)[C@H](CC(=O)O)NC(=O)[C@H](CC(C)C)NC(=O)[C@H]([C@@H](C)CC)NC(=O)[C@](C)(NC(=O)[C@H](C)NC(C)=O)CCCN(C)C(=O)OCC=CCOC(=O)N(C)CC[C@](C)(C(=O)N[C@@H](CCCNC(=N)N)C(=O)N[C@H](C(=O)N[C@@H](Cc2c[nH]c3ccccc23)C(N)=O)C(C)C)NC1=O [FP0588c, Ac-A-MI-I-L-D-A-H-I-MG-R-V-W-NH2] (Ac-A[dαMeOrn(Me)]ILDAHI[dαMeDab(Me)]RVW-NH2; linker 2-9 via X2)	< 100 nM	133 µM (≈ 219 µg/mL)	133 µM (≈ 219 µg/mL)	–	–
CC[C@H](C)[C@@H]1NC(=O)[C@H](Cc2c[nH]cn2)NC(=O)[C@H](C)NC(=O)[C@H](CC(=O)O)NC(=O)[C@H](CC(C)C)NC(=O)[C@H]([C@@H](C)CC)NC(=O)[C@](C)(NC(=O)[C@H](C)NC(C)=O)CCN(C)C(=O)OCC=CCOC(=O)N(C)CC[C@@](C)(C(=O)N[C@@H](CCCNC(=N)N)C(=O)N[C@H](C(=O)N[C@@H](Cc2c[nH]c3ccccc23)C(N)=O)C(C)C)NC1=O [FP0594c, Ac-A-MG-I-L-D-A-H-I-MF-R-V-W-NH2] (Ac-A[dαMeDab(Me)]ILDAHI[αMeDab(Me)]RVW-NH2; linker 2-9 via X2)	100 to 500 nM	166 µM (≈ 271 µg/mL)	166 µM (≈ 271 µg/mL)	–	–
CC[C@H](C)[C@@H]1NC(=O)[C@H](Cc2c[nH]cn2)NC(=O)[C@H](C)NC(=O)[C@H](CC(=O)O)NC(=O)[C@H](CC(C)C)NC(=O)[C@H]([C@@H](C)CC)NC(=O)[C@](C)(NC(=O)[C@H](C)NC(C)=O)CCN(C)C(=O)OCC=CCOC(=O)N2CC[C@](C(=O)N[C@@H](CCCNC(=N)N)C(=O)N[C@H](C(=O)N[C@@H](Cc3c[nH]c4ccccc34)C(N)=O)C(C)C)(C2)NC1=O [FP0598c, Ac-A-MG-I-L-D-A-H-I-MC-R-V-W-NH2] (Ac-A[dαMeDab(Me)]ILDAHI[X3]RVW-NH2; linker 2-9 via X2)	< 100 nM	–	–	–	91 µM (≈ 147 µg/mL)
CC[C@H](C)[C@@H]1NC(=O)[C@H](Cc2c[nH]cn2)NC(=O)[C@H](C)NC(=O)[C@H](CC(=O)O)NC(=O)[C@H](CC(C)C)NC(=O)[C@H]([C@@H](C)CC)NC(=O)C2(NC(=O)[C@H](C)NC(C)=O)CN(C2)C(=O)OCC=CCOC(=O)N2CC[C@](C(=O)N[C@@H](CCCNC(=N)N)C(=O)N[C@H](C(=O)N[C@@H](Cc3c[nH]c4ccccc34)C(N)=O)C(C)C)(C2)NC1=O [FP0616c, Ac-A-MA-I-L-D-A-H-I-MC-R-V-W-NH2] (Ac-A[3Aminoazetidine3carboxyl]ILDAHI[X3]RVW-NH2; linker 2-9 via X2)	< 100 nM	56 µM (≈ 88.7 µg/mL)	56 µM (≈ 88.7 µg/mL)	–	–
CC[C@H](C)[C@@H]1NC(=O)[C@H](Cc2c[nH]cn2)NC(=O)[C@H](C)NC(=O)[C@H](CC(=O)O)NC(=O)[C@H](CC(C)C)NC(=O)[C@H]([C@@H](C)CC)NC(=O)C2(NC(=O)[C@H](C)NC(C)=O)CN(C2)C(=O)OCC=CCOC(=O)N2CC[C@@](C(=O)N[C@@H](CCCNC(=N)N)C(=O)N[C@H](C(=O)N[C@@H](Cc3c[nH]c4ccccc34)C(N)=O)C(C)C)(C2)NC1=O [FP0617c, Ac-A-MA-I-L-D-A-H-I-MB-R-V-W-NH2] (Ac-A[3Aminoazetidine3carboxyl]ILDAHI[X1]RVW-NH2; linker 2-9 via X2)	< 100 nM	63 µM (≈ 99.8 µg/mL)	63 µM (≈ 99.8 µg/mL)	–	–
CC[C@H](C)[C@@H]1NC(=O)[C@H](Cc2c[nH]cn2)NC(=O)[C@H](C)NC(=O)[C@H](CC(=O)O)NC(=O)[C@H](CC(C)C)NC(=O)[C@H]([C@@H](C)CC)NC(=O)[C@@](C)(NC(=O)[C@H](C)NC(C)=O)CCN(C)C(=O)OCC=CCOC(=O)N2CC[C@@](C(=O)N[C@@H](CCCNC(=N)N)C(=O)N[C@H](C(=O)N[C@@H](Cc3c[nH]c4ccccc34)C(N)=O)C(C)C)(C2)NC1=O [FP0626c, Ac-A-MF-I-L-D-A-H-I-MB-R-V-W-NH2] (Ac-A[αMeDab(Me)]ILDAHI[X1]RVW-NH2; linker 2-9 via X2)	< 100 nM	40 µM (≈ 64.6 µg/mL)	40 µM (≈ 64.6 µg/mL)	–	–
CC[C@H](C)[C@H](NC(=O)[C@H](Cc1c[nH]cn1)NC(=O)[C@H](C)NC(=O)[C@H](CC(=O)O)NC(=O)[C@H](CC(C)C)NC(=O)[C@@H](NC(=O)C(C)(C)NC(=O)[C@H](C)NC(C)=O)[C@@H](C)CC)C(=O)NC(C)(C)C(=O)N[C@@H](CCCNC(=N)N)C(=O)N[C@H](C(=O)N[C@@H](Cc1c[nH]c2ccccc12)C(N)=O)C(C)C [FP0628_aib, Ac-A-Aib-I-L-D-A-H-I-Aib-R-V-W-NH2] (Ac-A[Aib]ILDAHI[Aib]RVW-NH2)	100 to 500 nM	88 µM (≈ 124 µg/mL)	–	–	–
CC[C@H](C)[C@@H]1NC(=O)[C@H](Cc2c[nH]cn2)NC(=O)[C@H](C)NC(=O)[C@H](CC(=O)O)NC(=O)[C@H](CC(C)C)NC(=O)[C@H]([C@@H](C)CC)NC(=O)[C@](C)(NC(=O)[C@H](C)NC(C)=O)CCCCCCC=CCOC(=O)N2CC[C@@](C(=O)N[C@@H](CCCNC(=N)N)C(=O)N[C@](C)(C(=O)N[C@@H](Cc3c[nH]c4ccccc34)C(N)=O)C(C)C)(C2)NC1=O [FP0632c, Ac-A-R8-I-L-D-A-H-I-MB-R-aMeV-W-NH2]	100 to 500 nM	13 µM (≈ 20.8 µg/mL)	–	–	–
